Measured values reported in patent publication US20260258035A1, “FIVE-MEMBERED AND SIX-MEMBERED NITROGEN-CONTAINING COMPOUND, AND INTERMEDIATE, PREPARATION METHOD AND USE THEREOF” (HANGZHOU SYNRX THERAPEUTICS BIOMEDICAL TECHNOLOGY CO., LTD., priority 2022, published 2026).
Like-named read-outs stand apart in the source and are kept apart here.

Experiments:
PARG = PARG (Homo sapiens, UniProt Q86W56); assay: Biochemical assay (PARG, TFMU-ADPr substrate)
HCC1806 = assay: Cell viability assay (CellTiter-Glo); assay type: cell-based, Human; conditions: HCC1806, 7 days, CellTiter-Glo, read-out: IC50 (nM) in cell viability assay
[1] = 4 nM PARG, 66.2 uM TFMU-ADPr, 3 min at room temperature

PARG, sequence (Q86W56 whole entry): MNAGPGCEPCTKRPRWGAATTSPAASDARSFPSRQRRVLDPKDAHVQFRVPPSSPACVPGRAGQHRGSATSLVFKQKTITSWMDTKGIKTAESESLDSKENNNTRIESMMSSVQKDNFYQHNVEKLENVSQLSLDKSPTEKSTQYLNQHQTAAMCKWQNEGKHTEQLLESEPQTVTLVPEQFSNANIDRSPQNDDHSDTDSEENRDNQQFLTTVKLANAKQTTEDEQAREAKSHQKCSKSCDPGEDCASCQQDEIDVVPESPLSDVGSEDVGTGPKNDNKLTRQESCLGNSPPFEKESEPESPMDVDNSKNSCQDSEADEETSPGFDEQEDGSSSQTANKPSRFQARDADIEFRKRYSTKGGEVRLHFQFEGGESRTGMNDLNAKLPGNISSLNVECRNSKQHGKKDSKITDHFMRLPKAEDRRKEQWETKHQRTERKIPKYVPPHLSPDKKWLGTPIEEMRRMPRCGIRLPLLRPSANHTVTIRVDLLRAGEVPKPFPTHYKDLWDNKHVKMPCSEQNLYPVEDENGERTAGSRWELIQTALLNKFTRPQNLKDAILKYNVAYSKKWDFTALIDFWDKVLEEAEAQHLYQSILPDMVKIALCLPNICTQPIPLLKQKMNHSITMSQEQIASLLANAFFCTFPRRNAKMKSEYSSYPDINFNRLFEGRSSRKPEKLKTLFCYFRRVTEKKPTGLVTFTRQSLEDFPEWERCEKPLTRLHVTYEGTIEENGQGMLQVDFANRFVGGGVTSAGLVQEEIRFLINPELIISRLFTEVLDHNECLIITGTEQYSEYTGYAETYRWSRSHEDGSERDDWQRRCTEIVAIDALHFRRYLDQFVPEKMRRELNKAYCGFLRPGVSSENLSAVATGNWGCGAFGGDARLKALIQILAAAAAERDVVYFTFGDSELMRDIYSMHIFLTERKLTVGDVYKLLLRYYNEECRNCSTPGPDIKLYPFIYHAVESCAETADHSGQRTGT

| IC50 (PARG; [1]) [nM] | IC50 (PARG; PARG, TFMU-ADPr substrate) [nM] | IC50 (HCC1806) [nM] | IC50 (HCC1806; Homo sapiens, HCC1806, 168 h) [nM] | SMILES |
| --- | --- | --- | --- | --- |
| < 100 | 31.6 | 264 | < 500 | CC1(C(=O)N2CCN(c3cc(S(=O)(=O)NC4(C#N)CC4)cn4c(-c5nnc(C(F)F)s5)ncc34)CC23CC3)CC1 [Example 91, N-(1-cyanocyclopropyl)-3-(5-(difluoromethyl)-1,3,4-thiadiazol-2-yl)-8-(4-(1-methylcyclopropane-1-carbonyl)-4,7-diazaspiro[2.5]octan-7-yl)imidazo[1,5-a]pyridine-6-sulfonamide] |
| < 100 | 27.5 | 974 | 500 to 5000 | CC1(C(=O)N2CC3CCC2CN3c2cc(S(=O)(=O)NC3(C#N)CC3)cn3c(-c4nnc(C(F)F)s4)ncc23)CC1 (stereo not drawn) [Example 92, N-(1-cyanocyclopropyl)-3-(5-(difluoromethyl)-1,3,4-thiadiazol-2-yl)-8-(5-(1-methylcyclopropane-1-carbonyl)-2,5-diazabicyclo[2.2.2]octan-2-yl)imidazo[1,5-a]pyridine-6-sulfonamide] |
| < 100 | 78.6 | 10000 | 5000 to 30000 | CC(C)C(=O)N1CCN(c2cc(S(=O)(=O)NC3(C#N)CC3)cn3c(-c4nnc(C(F)F)s4)nnc23)CC1 [Example 105, N-(1-cyanocyclopropyl)-3-(5-(difluoromethyl)-1,3,4-thiadiazol-2-yl)-8-(4-isobutyrylpiperazin-1-yl)-[1,2,4]triazolo[4,3-a]pyridine-6-sulfonamide] |
| < 100 | 28.2 | 5000 | 5000 to 30000 | CC(C)C(=O)N1CCN(c2cc(S(=O)(=O)NC3(CF)COC3)cn3c(-c4nnc(C(F)F)s4)nnc23)CC1 [Example 106, 3-(5-(difluoromethyl)-1,3,4-thiadiazol-2-yl)-N-(3-(fluoromethyl)oxetan-3-yl)-8-(4-isobutyrylpiperazin-1-yl)-[1,2,4]triazolo[4,3-a]pyridine-6-sulfonamide] |
| < 100 | 30.5 | 7000 | 5000 to 30000 | CC(C)(O)C1CCN(c2cc(S(=O)(=O)NC3(CF)CC3)cn3c(-c4nnc(C(F)F)s4)nnc23)CC1 [Example 109, 3-(5-(difluoromethyl)-1,3,4-thiadiazol-2-yl)-N-(1-(fluoromethyl)cyclopropyl)-8-(4-(2-hydroxypropan-2-yl)piperidin-1-yl)-[1,2,4]triazolo[4,3-a]pyridine-6-sulfonamide] |
| < 100 | 41.7 | 431 | < 500 | CC(C)C(=O)N1CCN(c2cc(S(=O)(=O)NC3(C)CC3)cn3c(-c4nnc(C(F)(F)F)s4)nnc23)C[C@H]1C [Example 119, (R)-8-(4-isobutyryl-3-methylpiperazin-1-yl)-N-(1-methylcyclopropyl)-3-(5-(trifluoromethyl)-1,3,4-thiadiazol-2-yl)-[1,2,4]triazolo[4,3-a]pyridine-6-sulfonamide] |
| < 100 | 60.1 | – | 2590 | CC(C)C(=O)N1CCN(c2cc(S(=O)(=O)NC3CC3)cn3c(-c4nnc(C(F)(F)F)s4)nc(Cl)c23)CC1 [Example 121, 1-chloro-N-cyclopropyl-8-(4-isobutyrylpiperazin-1-yl)-3-(5-(trifluoromethyl)-1,3,4-thiadiazol-2-yl)imidazo[1,5-a]pyridine-6-sulfonamide] |
| – | 31.2 | – | 518 | C[C@H]1CN(c2cc(S(=O)(=O)NC3(C)COC3)cn3c(-c4nnc(C(F)(F)F)s4)nc(Cl)c23)C[C@H](C)N1 [Example 125, 1-chloro-8-((3S,5S)-3,5-dimethylpiperazin-1-yl)-N-(3-methyloxetan-3-yl)-3-(5-(trifluoromethyl)-1,3,4-thiadiazol-2-yl)imidazo[1,5-a]pyridine-6-sulfonamide] |
| – | 5.34 | – | 602 | C[C@H]1CN(c2cc(S(=O)(=O)NC3(C)COC3)cn3c(-c4nnc(C(F)F)s4)nc(Cl)c23)C[C@H](C)N1 [Example 126, 1-chloro-3-(5-(difluoromethyl)-1,3,4-thiadiazol-2-yl)-8-((3S,5S)-3,5-dimethylpiperazin-1-yl)-N-(3-methyloxetan-3-yl)imidazo[1,5-a]pyridine-6-sulfonamide] |
| – | 1.01 | – | 95 | COCC1CN(c2cc(S(=O)(=O)NC3(C)COC3)cn3c(-c4nnc(C(F)F)s4)nc(Cl)c23)CCN1 (stereo not drawn) [Example 127, 1-chloro-3-(5-(difluoromethyl)-1,3,4-thiadiazol-2-yl)-8-(3-(methoxymethyl)piperazin-1-yl)-N-(3-methyloxetan-3-yl)imidazo[1,5-a]pyridine-6-sulfonamide] |
| – | 0.99 | – | 28 | CN(C)C(=O)N1CCN(c2cc(S(=O)(=O)NC3(C)COC3)cn3c(-c4nnc(C(F)F)s4)nc(Cl)c23)CC1 [Example 128, 4-(1-chloro-3-(5-(difluoromethyl)-1,3,4-thiadiazol-2-yl)-6-(N-(3-methyloxetan-3-yl)sulfamoyl)imidazo[1,5-a]pyridin-8-yl)-N,N-dimethylpiperazine-1-carboxamide] |
| – | 0.16 | – | 12.7 | [2H]C([2H])([2H])OC1(C(=O)N2CCN(c3cc(S(=O)(=O)NC4(C)COC4)cn4c(-c5nnc(C(F)(F)F)s5)nc(Cl)c34)CC2)CC1 [Example 129, 1-chloro-8-(4-(1-(methoxy-d3)cyclopropane-1-carbonyl)piperazin-1-yl)-N-(3-methyloxetan-3-yl)-3-(5-(trifluoromethyl)-1,3,4-thiadiazol-2-yl)imidazo[1,5-a]pyridine-6-sulfonamide] |
| – | 36.3 | – | 1200 | CC(C)C(=O)N1CCN(c2cc(S(=O)(=O)NC3(C#N)CC3)cn3c(-c4nnc(C(F)(F)F)s4)nc(Cl)c23)C[C@H]1C [Example 130, (R)-1-chloro-N-(1-cyanocyclopropyl)-8-(4-isobutyryl-3-methylpiperazin-1-yl)-3-(5-(trifluoromethyl)-1,3,4-thiadiazol-2-yl)imidazo[1,5-a]pyridine-6-sulfonamide] |

The remaining lines, values behind:

| SMILES | IC50 (PARG; [1]) [nM] | IC50 (PARG; PARG, TFMU-ADPr substrate) [nM] | IC50 (HCC1806) [nM] | IC50 (HCC1806; Homo sapiens, HCC1806, 168 h) [nM] |
| --- | --- | --- | --- | --- |
| CN(C)C(=O)N1CC2(CC=C(c3nc(-c4nnc(C(F)F)s4)n4cc(S(=O)(=O)NC5(C#N)CC5)ccc34)C2)C1 [Example 25, 6-(6-(N-(1-cyanocyclopropyl)sulfamoyl)-3-(5-(difluoromethyl)-1,3,4-thiadiazol-2-yl)imidazo[1,5-a]pyridin-1-yl)-N,N-dimethyl-2-azaspiro[3.4]oct-6-ene-2-carboxamide] | < 100 | 4.84 | 490 | < 500 |
| Cc1cnc(-c2cnn3c(N4CCN(C(=O)C(C)C)CC4)cc(S(=O)(=O)NC4(C#N)CC4)cc23)s1 [Example 29, N-(1-cyanocyclopropyl)-7-(4-isobutyrylpiperazin-1-yl)-3-(5-methylthiazol-2-yl)pyrazolo[1,5-a]pyridine-5-sulfonamide] | < 100 | 94.6 | – | 5000 to 30000 |
| Cc1nnc(-c2cnn3c(N4CCN(C(=O)C(C)C)CC4)cc(S(=O)(=O)NC4(C#N)CC4)cc23)s1 [Example 30, N-(1-cyanocyclopropyl)-7-(4-isobutyrylpiperazin-1-yl)-3-(5-methyl-1,3,4-thiadiazol-2-yl)pyrazolo[1,5-a]pyridine-5-sulfonamide] | < 100 | 88.9 | – | > 30000 |
| CC(C)C(=O)N1CCN(c2cc(S(=O)(=O)NC3(C)CNC3)cn3c(-c4nnc(C(F)F)s4)ncc23)CC1 [Example 50, 3-(5-(difluoromethyl)-1,3,4-thiadiazol-2-yl)-8-(4-isobutyrylpiperazin-1-yl)-N-(3-methylazetidin-3-yl)imidazo[1,5-a]pyridine-6-sulfonamide] | > 1000 | – | – | > 30000 |
| CC(C)C(=O)N1CCN(c2cc(S(=O)(=O)NC3(C)CN(C)C3)cn3c(-c4nnc(C(F)F)s4)ncc23)CC1 [Example 51, 3-(5-(difluoromethyl)-1,3,4-thiadiazol-2-yl)-N-(1,3-dimethylazetidin-3-yl)-8-(4-isobutyrylpiperazin-1-yl)imidazo[1,5-a]pyridine-6-sulfonamide] | > 1000 | – | – | > 30000 |
| CC(C)C(=O)N1CCN(c2cc(S(=O)(=O)NC34CC(F)(C3)C4)cn3c(-c4nnc(C(F)F)s4)ncc23)CC1 [Example 59, 3-(5-(difluoromethyl)-1,3,4-thiadiazol-2-yl)-N-(3-fluorobicyclo[1.1.1]pentan-1-yl)-8-(4-isobutyrylpiperazin-1-yl)imidazo[1,5-a]pyridine-6-sulfonamide] | > 1000 | – | – | > 30000 |
| CC(C)C(=O)N1CCN(c2cc(S(=O)(=O)NC3(C)CC(F)(F)C3)cn3c(-c4nnc(C(F)F)s4)ncc23)CC1 [Example 61, N-(3,3-difluoro-1-methylcyclobutyl)-3-(5-(difluoromethyl)-1,3,4-thiadiazol-2-yl)-8-(4-isobutyrylpiperazin-1-yl)imidazo[1,5-a]pyridine-6-sulfonamide] | 100 to 500 | 121 | – | > 30000 |
| CC1(NS(=O)(=O)c2cc(N3CCC(O)(C(F)(F)F)CC3)c3cnc(-c4nnc(C(F)F)s4)n3c2)COC1 [Example 72, 3-(5-(difluoromethyl)-1,3,4-thiadiazol-2-yl)-8-(4-hydroxy-4-(trifluoromethyl)piperidin-1-yl)-N-(3-methyloxetan-3-yl)imidazo[1,5-a]pyridine-6-sulfonamide] | < 100 | 17.8 | 805 | 500 to 5000 |
| CC(C)C(=O)N1CCN(c2cc(S(=O)(=O)N[C@H]3C[C@H]3F)cn3c(-c4nnc(C(F)F)s4)ncc23)CC1 [Example 82, 3-(5-(difluoromethyl)-1,3,4-thiadiazol-2-yl)-N-((1S,2R)-2-fluorocyclopropyl)-8-(4-isobutyrylpiperazin-1-yl)imidazo[1,5-a]pyridine-6-sulfonamide] | 100 to 500 | 209 | 7050 | 5000 to 30000 |
